Experimental data from US8193191B2, “Urotensin II receptor antagonists” (Janssen Pharmaceutica N.V., priority 2006, dated 2012).
“And” between values parts separate entries of the source, which are not always exact repeats. Equal entries are not always repeated. Where two headings read alike, the source gives them in different places.

Columns and labels:
[1] = biological target: T1, endogenous human UII receptor (Homo sapiens, UniProt Q9UKP6); assay: Human Radioligand Binding Assay ((^125I)-U-II binding to human skeletal muscle myoblasts)
T1 sequence (Q9UKP6 1-389): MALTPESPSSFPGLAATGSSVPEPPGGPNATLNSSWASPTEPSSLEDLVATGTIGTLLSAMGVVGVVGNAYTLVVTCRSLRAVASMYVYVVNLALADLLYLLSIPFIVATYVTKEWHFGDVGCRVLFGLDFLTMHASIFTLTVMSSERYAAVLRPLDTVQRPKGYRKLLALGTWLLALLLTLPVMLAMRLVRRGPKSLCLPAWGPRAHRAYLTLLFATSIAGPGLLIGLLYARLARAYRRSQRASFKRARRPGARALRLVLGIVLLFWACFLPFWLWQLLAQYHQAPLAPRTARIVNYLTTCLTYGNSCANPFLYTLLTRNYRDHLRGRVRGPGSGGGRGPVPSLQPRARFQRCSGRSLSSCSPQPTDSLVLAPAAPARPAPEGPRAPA

[2] = biological target: T2, rat GPR14 (U-II receptor) (Rattus norvegicus, UniProt P49684); assay: Rat UII Calcium Mobilization FLIPR Assay; format: cell-based; conditions: for inhibition at 10 µM / inhibition at 50 µM: CHO, 5 min, agonist-induced Ca2+ mobilization (FLIPR), CHO cells with rat UII receptor; for inhibition at 10 µM: 10 μM compound, read-out: % I @ 10; for inhibition at 50 µM: 50 μM compound, read-out: % I @ 50
T2 construct: expressed in transfected cells
T2 sequence (P49684 1-386): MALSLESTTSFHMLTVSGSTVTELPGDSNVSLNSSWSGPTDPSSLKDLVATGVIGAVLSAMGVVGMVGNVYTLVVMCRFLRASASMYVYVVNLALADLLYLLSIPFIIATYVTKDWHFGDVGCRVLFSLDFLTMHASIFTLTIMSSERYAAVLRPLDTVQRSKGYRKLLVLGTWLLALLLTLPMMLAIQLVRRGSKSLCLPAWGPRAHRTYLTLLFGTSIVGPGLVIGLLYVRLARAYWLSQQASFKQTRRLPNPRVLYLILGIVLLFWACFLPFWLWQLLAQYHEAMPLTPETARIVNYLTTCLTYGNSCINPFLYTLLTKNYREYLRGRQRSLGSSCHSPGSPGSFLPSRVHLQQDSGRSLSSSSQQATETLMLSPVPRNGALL
Description: To derive these cells, the complete coding sequence of rat U-II (Genbank Accession No. U32673) was amplified by nested PCR from rat heart marathon-Ready cDNA. […] The PCR products were cloned into pcDNA3 (Invitrogen) digested with EcoR I and Xba I. Clones containing rat U-II receptor were verified by complete sequencing of the U-II receptor insert to ensure a lack of PCR-introduced errors. The constructed vector was transfected into CHO cells by using lipofectamine (GIBCO BRL). CHO cells with high expression of rat U-II receptor were selected and established as stable cell lines by using G418. CHO cells were seeded at 25,000 cells per well into 96-well, black-wall, clear-bottom microtiter plates 24 h before assay. Cells in culture media (DMEM/F12 containing 15 mM HEPES, L-glutamine, pyridoxine hydrochloride; 10% fetal bovine serum; 1 mg/mL G418 sulfate; antibiotic-antimycotic; pH 7.4) were loaded with proprietary dye, from the FLIPR Calcium Assay Kit (Molecular Devices), prepared in assay buffer (Hanks Balanced Salts Solution, 20 mM HEPES, 0.1% BSA, 2.5 mM probenecid, pH 7.4), and incubated for 1 h at 37° C. Calcium mobilization determinations were performed at room temperature (23° C.).

[3] = average value for the compound tested, read-out: Rat UII FLIPR Average IC50
[4] = Inhibition of human UII binding to human skeletal muscle myoblasts containing endogenous human UII receptor
[5] = Inhibition of Acetyl-cyclic[Cys-Phe-Trp-Lys-(2-Nal)-Cys]-NH2 induced Ca2+ mobilization (FLIPR) in CHO cells transfected with rat UII receptor, read-out: IC50

Structure (SMILES) | Ki [1] | IC50 [2, 3] | Ki [1, 4] | inhibition at 10 µM [2] | inhibition at 50 µM [2] | IC50 [2, 5] | IC50 ([2]; IC50 (μM), Inhibition of Acetyl-cyclic[Cys-Phe-Trp-Lys-(2-Nal)-Cys]-NH2 induced Ca2+ mobilization (FLIPR) in CHO cells transfected with rat UII receptor)
CCC(c1ccc(OC)c(OC)c1)N1C(=O)c2cccc(N3CCN([C@H](C)c4ccccc4)CC3)c2C1=O (stereo partly drawn) [Cpd 8, 2-[1-(3,4-dimethoxy-phenyl)-propyl]-4-[4-(1R)-(1-phenyl-ethyl)-piperazin-1-yl]-isoindole-1,3-dione] | – | – | 310 nM | 100% | 100% | 0.18 µM | –
COc1ccc(CN2C(=O)c3c(Cl)ccc(N4CC5CCC(C4)N5Cc4ccccc4)c3C2=O)cc1OC [Cpd 9, 4-(8-benzyl-3,8-diaza-bicyclo[3.2.1]oct-3-yl)-7-chloro-2-(3,4-dimethoxy-benzyl)-isoindole-1,3-dione] | 660 nM | – | – | 91% | 81% | 0.19 µM | –
COc1ccc(CN2C(=O)c3cccc(N4CC5CCC(C4)N5Cc4ccccc4)c3C2=O)cc1OC [Cpd 7, 4-(8-benzyl-3,8-diaza-bicyclo[3.2.1]oct-3-yl)-2-(3,4-dimethoxy-benzyl)-isoindole-1,3-dione] | 200 nM | – | – | 89% | – | 0.22 µM and 0.18 µM | –
CCn1cc(S(=O)(=O)NCCC[C@H](c2ccc(OC)c(OC)c2)N2C(=O)c3cccc(N4CCN([C@H](C)c5ccccc5)CC4)c3C2=O)cn1 [Cpd 134, (R)-1-ethyl-1H-pyrazole-4-sulfonic acid (4-(3,4-dimethoxy-phenyl)-4-{1,3-dioxo-4-[4-(1R)-(1-phenyl-ethyl)-piperazin-1-yl]-1,3-dihydro-isoindol-2-yl}-butyl)-amide] | 68 nM | 0.019 µM | – | – | – | – | –
COc1ccc([C@@H](C)N2C(=O)c3cccc(N4CCN([C@H](C)c5ccccc5)CC4)c3C2=O)cc1OC [Cpd 4, (R)-2-[1-(3,4-dimethoxy-phenyl)-ethyl]-4-[4-(1R)-(1-phenyl-ethyl)-piperazin-1-yl]-isoindole-1,3-dione] | – | – | 230 nM | 100% | 100% | 0.15 µM | –
COc1ccc(C(CCCNS(C)(=O)=O)N2C(=O)c3cccc(N4CCN([C@H](C)c5ccccc5)CC4)c3C2=O)cc1OC (stereo partly drawn) [Cpd 67, N-(4-(3,4-dimethoxy-phenyl)-4-{1,3-dioxo-4-[4-(1R)-(1-phenyl-ethyl)-piperazin-1-yl]-1,3-dihydro-isoindol-2-yl}-butyl)-methanesulfonamide] | 1400 nM | – | – | 101% | 99% | 0.1 µM | 0.11 µM
COc1ccc([C@@H](CCCNS(N)(=O)=O)N2C(=O)c3cccc(N4CCN([C@H](C)c5ccccc5)CC4)c3C2=O)cc1OC [Cpd 141, (R)-N′-[(4-(3,4-dimethoxy-phenyl)-4-{1,3-dioxo-4-[4-(1R)-(1-phenyl-ethyl)-piperazin-1-yl]-1,3-dihydro-isoindol-2-yl}-butyl)]-sulfamide] | 17 nM | – | – | – | – | – | –
O=C1c2cccc(N3CC4CCC(C3)N4Cc3ccccc3)c2C(=O)N1Cc1ccncc1 [Cpd 39, 4-(8-benzyl-3,8-diaza-bicyclo[3.2.1]oct-3-yl)-2-pyridin-4-ylmethyl-isoindole-1,3-dione] | – | – | – | 47% | 101% | 8.9 µM | –
COc1ccc(CN2C(=O)c3c(C=CS(C)(=O)=O)ccc(N4CCN([C@H](C)c5ccccc5)CC4)c3C2=O)cc1OC [Cpd 62, 2-(3,4-dimethoxy-benzyl)-4-(2-methanesulfonyl-vinyl)-7-[4-(1R)-(1-phenyl-ethyl)-piperazin-1-yl]-isoindole-1,3-dione] | – | – | – | 99% | 102% | 0.72 µM | –
O=C1c2cccc(N3CC4CCC(C3)N4Cc3ccccc3)c2C(=O)N1Cc1ccccn1 [Cpd 59, 4-(8-benzyl-3,8-diaza-bicyclo[3.2.1]oct-3-yl)-2-pyridin-2-ylmethyl-isoindole-1,3-dione] | – | – | – | 11% | 56% | 34 µM | –
COc1ccc(C(CCCNS(=O)(=O)c2ccc(Cl)s2)N2C(=O)c3cccc(N4CCN([C@H](C)c5ccccc5)CC4)c3C2=O)cc1OC (stereo partly drawn) [Cpd 71, 5-chloro-thiophene-2-sulfonic acid (4-(3,4-dimethoxy-phenyl)-4-{1,3-dioxo-4-[4-(1R)-(1-phenyl-ethyl)-piperazin-1-yl]-1,3-dihydro-isoindol-2-yl}-butyl)-amide] | – | – | – | 58% | 37% | 1.7 µM | –
CCOc1cc(CN2C(=O)c3cccc(N4CCN([C@H](C)c5ccccc5)CC4)c3C2=O)ccc1OC [Cpd 21, 2-(3-ethoxy-4-methoxy-benzyl)-4-[4-(1R)-(1-phenyl-ethyl)-piperazin-1-yl]-isoindole-1,3-dione] | – | – | – | 90% | 98% | 1.7 µM | –
COc1cc(CN2C(=O)c3cccc(N4CC5CCC(C4)N5Cc4ccccc4)c3C2=O)cc(OC)c1OC [Cpd 26, 4-(8-benzyl-3,8-diaza-bicyclo[3.2.1]oct-3-yl)-2-(3,4,5-trimethoxy-benzyl)-isoindole-1,3-dione] | – | – | – | 81% | 94% | 3.4 µM | –

Continued, in another order:

Ki [1] | IC50 [2, 3] | Ki [1, 4] | inhibition at 10 µM [2] | inhibition at 50 µM [2] | IC50 [2, 5] | Structure (SMILES) | IC50 ([2]; IC50 (μM), Inhibition of Acetyl-cyclic[Cys-Phe-Trp-Lys-(2-Nal)-Cys]-NH2 induced Ca2+ mobilization (FLIPR) in CHO cells transfected with rat UII receptor)
2600 nM | 0.27 µM | – | – | – | – | COc1ccc(CN2C(=O)c3cccc(N4CCN(Cc5ccoc5)CC4)c3C2=O)cc1OC [Cpd 78, 2-(3,4-dimethoxy-benzyl)-4-(4-furan-3-ylmethyl-piperazin-1-yl)-isoindole-1,3-dione] | –
4500 nM | – | – | – | – | 2.8 µM and 0.37 µM | COc1ccc(CN2C(=O)c3cccc(N4CCN(Cc5ccc(F)cc5)CC4)c3C2=O)cc1OC [Cpd 12, 2-(3,4-dimethoxy-benzyl)-4-[4-(4-fluoro-benzyl)-piperazin-1-yl]-isoindole-1,3-dione] | –
5500 nM | – | – | 75% | 101% | 4.2 µM | COc1ccc(CN2C(=O)c3cccc(N4CCN(C(C)(C)c5ccccc5)CC4)c3C2=O)cc1OC [Cpd 28, 2-(3,4-dimethoxy-benzyl)-4-[4-(1-methyl-1-phenyl-ethyl)-piperazin-1-yl]-isoindole-1,3-dione] | –
– | – | – | 100% | 100% | 1.9 µM | COc1ccc(CN2C(=O)c3cccc(N4CCN(CCc5ccccc5)CC4)c3C2=O)cc1OC [Cpd 22, 2-(3,4-dimethoxy-benzyl)-4-(4-phenethyl-piperazin-1-yl)-isoindole-1,3-dione] | –
– | – | – | 100% | 101% | 0.34 µM | COc1cc2c(cc1OC)C(N1C(=O)c3cccc(N4CCN(Cc5ccccc5)CC4)c3C1=O)CC2 (stereo not shown) [Cpd 11, 4-(4-benzyl-piperazin-1-yl)-2-(5,6-dimethoxy-indan-1-yl)-isoindole-1,3-dione] | –
– | – | – | 25% | 60% | 32 µM | COc1cc(CN2C(=O)c3cccc(N4CCN(Cc5ccccc5)CC4)c3C2=O)ccn1 [Cpd 58, 4-(4-benzyl-piperazin-1-yl)-2-(2-methoxy-pyridin-4-ylmethyl)-isoindole-1,3-dione] | –
– | – | – | 96% | 100% | 2.1 µM | COc1ccc(CN2C(=O)c3cccc(N4CCN(Cc5ccc(F)cc5F)CC4)c3C2=O)cc1OC [Cpd 24, 4-[4-(2,4-difluoro-benzyl)-piperazin-1-yl]-2-(3,4-dimethoxy-benzyl)-isoindole-1,3-dione] | –
– | – | – | 78% | 100% | 3.8 µM | COc1ccc(CN2C(=O)c3cccc(N4CCN(C(c5ccccc5)C5CC5)CC4)c3C2=O)cc1OC (stereo not shown) [Cpd 27, 4-[4-(cyclopropyl-phenyl-methyl)-piperazin-1-yl]-2-(3,4-dimethoxy-benzyl)-isoindole-1,3-dione] | –
